Reference: patent US20250215029A1 (Recludix Pharma, Inc., priority 2022, published 2025)

Tests used:
[1] = biological target: T1, Recombinant STAT3 protein (STAT3 (G127-I722)) (Homo sapiens, UniProt P40763); assay: STAT3 Fluorescence Polarization (FP) Assay; type: binding; conditions: STAT3 (G127-I722) 25 nM, probe 5-FAM-GpYLPQTV-NH2 2 nM, 45-minute incubation; read-out: STAT3 (FP assay IC50 class)
T1 construct: Recombinant STAT3 protein (STAT3 (G127-I722))
How it was run: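 Read-out is fluorescence polarization (mP) after 45 min at room temperature, with IC50 fitted by nonlinear regression against log compound concentration. Mixture: 25 nM STAT3 (G127-I722), 2 nM 5-FAM-GpYLPQTV-NH2 phosphopeptide, 10 mM HEPES pH 7.4 buffer, 1% DMSO.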

[2] = biological target: T2, Recombinant STAT6 protein (STAT6 (W123-T658)) (Homo sapiens, UniProt P42226); assay: STAT6 Fluorescence Polarization (FP) Assay; type: binding; conditions: STAT6 (W123-T658) 250 nM, probe 5-FAM-Ap[…]-NH2 2 nM, 45-minute incubation; read-out: STAT6 (FP assay IC50 class)
T2 construct: Recombinant STAT6 protein (STAT6 (W123-T658))
T2 sequence (P42226 123-658): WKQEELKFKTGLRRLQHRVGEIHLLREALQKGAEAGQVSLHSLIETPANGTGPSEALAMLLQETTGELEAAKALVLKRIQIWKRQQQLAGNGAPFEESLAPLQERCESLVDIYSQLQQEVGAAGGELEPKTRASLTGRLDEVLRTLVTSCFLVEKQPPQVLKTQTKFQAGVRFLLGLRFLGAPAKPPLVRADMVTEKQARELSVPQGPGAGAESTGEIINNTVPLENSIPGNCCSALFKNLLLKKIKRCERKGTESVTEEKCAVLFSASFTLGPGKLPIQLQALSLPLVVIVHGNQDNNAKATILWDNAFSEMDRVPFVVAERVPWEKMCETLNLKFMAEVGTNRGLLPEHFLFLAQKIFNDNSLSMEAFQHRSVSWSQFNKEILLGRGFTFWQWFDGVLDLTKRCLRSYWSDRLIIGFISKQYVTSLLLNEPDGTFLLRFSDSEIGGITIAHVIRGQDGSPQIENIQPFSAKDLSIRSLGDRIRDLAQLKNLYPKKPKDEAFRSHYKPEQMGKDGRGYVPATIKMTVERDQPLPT
How it was run: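 Protein-probe mix (250 nM STAT6 W123-T658, 2 nM 5-FAM-pTyr peptide) in 10 mM HEPES pH 7.4, 50 mM NaCl, 1 mM EDTA, 0.05% Tween 20, 2 mM DTT; added to compound dilution series, 1% DMSO final; 45 min RT; FP read; IC50 via nonlinear regression.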

T1 sequence (P40763 127-722): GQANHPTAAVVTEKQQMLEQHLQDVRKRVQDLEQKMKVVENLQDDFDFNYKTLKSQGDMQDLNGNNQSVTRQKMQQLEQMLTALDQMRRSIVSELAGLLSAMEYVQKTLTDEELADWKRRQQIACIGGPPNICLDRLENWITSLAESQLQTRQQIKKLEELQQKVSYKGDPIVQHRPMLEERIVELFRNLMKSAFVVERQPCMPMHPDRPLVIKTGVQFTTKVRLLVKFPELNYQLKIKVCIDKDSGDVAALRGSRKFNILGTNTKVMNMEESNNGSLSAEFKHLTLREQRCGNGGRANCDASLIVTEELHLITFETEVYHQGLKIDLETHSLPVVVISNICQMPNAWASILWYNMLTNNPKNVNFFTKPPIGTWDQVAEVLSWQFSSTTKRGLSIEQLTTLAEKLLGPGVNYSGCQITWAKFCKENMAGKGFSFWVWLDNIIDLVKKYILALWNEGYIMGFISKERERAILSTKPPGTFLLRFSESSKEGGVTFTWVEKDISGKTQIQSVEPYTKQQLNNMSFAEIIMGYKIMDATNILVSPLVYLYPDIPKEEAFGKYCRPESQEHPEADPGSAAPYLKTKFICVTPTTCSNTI

| SMILES | IC50 [1] [µM] | IC50 [2] [µM] |
| --- | --- | --- |
| COc1ccncc1[C@@H]1CCN(C(=O)[C@@H]2CC[C@@H]3CCC[C@H](NC(=O)c4cc5cc(C(F)P(=O)(O)O)ccc5s4)C(=O)N32)C1 (stereo partly drawn) [Compound 706, (fluoro(2-(((3S,6S,9aS)-3-((S)-3-(4-methoxypyridin-3-yl)pyrrolidine-1-carbonyl)-5-oxooctahydro-1H-pyrrolo[1,2-a]azepin-6-yl)carbamoyl)benzo [b]thiophen-5-yl)methyl) phosphonic acid] | < 0.1 | 0.3 to 3 |
| COc1ccncc1[C@H]1CCN(C(=O)[C@@H]2CC[C@@H]3CCC[C@H](NC(=O)c4cc5cc(C(F)P(=O)(O)O)ccc5s4)C(=O)N32)C1 (stereo partly drawn) [Compound 707, (fluoro(2-(((3S,6S,9aS)-3-((R)-3-(4-methoxypyridin-3-yl)pyrrolidine-1-carbonyl)-5-oxooctahydro-1H-pyrrolo[1,2-a]azepin-6-yl)carbamoyl)benzo [b]thiophen-5-yl)methyl) phosphonic acid] | < 0.1 | 0.3 to 3 |
| COc1nn(C)cc1C1CN(C(=O)[C@@H]2CC[C@@H]3CCC[C@H](NC(=O)c4cc5cc(C(F)P(=O)(O)O)ccc5s4)C(=O)N32)C1 (stereo partly drawn) [Compound 714, (fluoro(2-(((3S,6S,9aS)-3-(3-(3-methoxy-1-methyl-1H-pyrazol-4-yl)azetidine-1-carbonyl)-5-oxooctahydro-1H-pyrrolo[1,2-a]azepin-6-yl)carbamoyl)benzo [b]thiophen-5-yl)methyl) phosphonic acid] | 0.1 to 1 | 3 to 30 |
| Cn1cc(C2CN(C(=O)[C@@H]3CC[C@@H]4CCC[C@H](NC(=O)c5cc6cc(C(F)P(=O)(O)O)ccc6s5)C(=O)N43)C2)c(F)n1 (stereo partly drawn) [Compound 715, (fluoro(2-(((3S,6S,9aS)-3-(3-(3-fluoro-1-methyl-1H-pyrazol-4-yl)azetidine-1-carbonyl)-5-oxooctahydro-1H-pyrrolo[1,2-a]azepin-6-yl)carbamoyl)benzo [b]thiophen-5-yl)methyl) phosphonic acid] | 0.1 to 1 | 3 to 30 |
| Cn1cc(C2CN(C(=O)[C@@H]3CC[C@@H]4CCC[C@H](NC(=O)c5cc6cc(C(F)P(=O)(O)O)ccc6s5)C(=O)N43)C2)cn1 (stereo partly drawn) [Compound 716, (fluoro(2-(((3S,6S,9aS)-3-(3-(1-methyl-1H-pyrazol-4-yl)azetidine-1-carbonyl)-5-oxooctahydro-1H-pyrrolo[1,2-a]azepin-6-yl)carbamoyl)benzo [b]thiophen-5-yl)methyl) phosphonic acid] | 1 to 10 | 3 to 30 |
| O=C(N[C@H]1CCC[C@H]2CC[C@@H](C(=O)N3CC(c4cncc(Cl)c4F)C3)N2C1=O)c1cc2cc(C(F)P(=O)(O)O)ccc2s1 (stereo partly drawn) [Compound 717, ((2-(((3S,6S,9aS)-3-(3-(5-chloro-4-fluoropyridin-3-yl)azetidine-1-carbonyl)-5-oxooctahydro-1H-pyrrolo[1,2-a]azepin-6-yl)carbamoyl)benzo [b]thiophen-5-yl)fluoromethyl) phosphonic acid] | < 0.1 | 3 to 30 |
| O=C(N[C@H]1CCCC[C@H]2CC[C@@H](C(=O)N3CC(Cc4ccccn4)C3)N2C1=O)c1cc2cc(C(F)(F)P(=O)(O)O)ccc2s1 [Compound 718, (difluoro(2-(((3S,6S,10aS)-5-oxo-3-(3-(pyridin-2-ylmethyl)azetidine-1-carbonyl)decahydropyrrolo[1,2-a]azocin-6-yl)carbamoyl)benzo [b]thiophen-5-yl)methyl) phosphonic acid] | < 0.1 | 0.3 to 3 |
| CS(=N)(=O)c1cnc(C2CN(C(=O)[C@@H]3CC[C@@H]4CCCC[C@H](NC(=O)c5cc6cc(C(F)(F)P(=O)(O)O)ccc6s5)C(=O)N43)C2)nc1 (stereo partly drawn) [Compound 719, (difluoro(2-(((3S,6S,10aS)-3-(3-(5-(S-methylsulfonimidoyl)pyrimidin-2-yl)azetidine-1-carbonyl)-5-oxodecahydropyrrolo [1,2-a]azocin-6-yl)carbamoyl)benzo [b]thiophen-5-yl)methyl) phosphonic acid] | 0.1 to 1 | 3 to 30 |
| O=C(N[C@H]1CCC[C@H]2CC[C@@H](C(=O)N3CC(c4cccnc4)C3)N2C1=O)c1cc2cc(CP(=O)(O)O)ccc2[nH]1 [Compound 720, ((2-(((3S,6S,9aS)-5-oxo-3-(3-(pyridin-3-yl)azetidine-1-carbonyl)octahydro-1H-pyrrolo[1,2-a]azepin-6-yl)carbamoyl)-1H-indol-5-yl)methyl) phosphonic acid] | 1 to 10 | 3 to 30 |
| COC1(c2cncnc2C)CN(C(=O)[C@@H]2CC[C@@H]3CCC[C@H](NC(=O)c4cc5cc(C(F)(F)P(=O)(O)O)ccc5s4)C(=O)N32)C1 [Compound 721, (difluoro(2-(((3S,6S,9aS)-3-(3-methoxy-3-(4-methylpyrimidin-5-yl)azetidine-1-carbonyl)-5-oxooctahydro-1H-pyrrolo[1,2-a]azepin-6-yl)carbamoyl)benzo [b]thiophen-5-yl)methyl) phosphonic acid] | 0.1 to 1 | 3 to 30 |
| COC1(c2cnccc2C)CN(C(=O)[C@@H]2CC[C@@H]3CCC[C@H](NC(=O)c4cc5cc(C(F)(F)P(=O)(O)O)ccc5s4)C(=O)N32)C1 [Compound 722, (difluoro(2-(((3S,6S,9aS)-3-(3-methoxy-3-(4-methylpyridin-3-yl)azetidine-1-carbonyl)-5-oxooctahydro-1H-pyrrolo[1,2-a]azepin-6-yl)carbamoyl)benzo [b]thiophen-5-yl)methyl) phosphonic acid] | 0.1 to 1 | 3 to 30 |
| COC1(c2cncnc2)CN(C(=O)[C@@H]2CC[C@@H]3CCC[C@H](NC(=O)c4cc5cc(C(F)(F)P(=O)(O)O)ccc5s4)C(=O)N32)C1 [Compound 723, (difluoro(2-(((3S,6S,9aS)-3-(3-methoxy-3-(pyrimidin-5-yl)azetidine-1-carbonyl)-5-oxooctahydro-1H-pyrrolo[1,2-a]azepin-6-yl)carbamoyl)benzo [b]thiophen-5-yl)methyl) phosphonic acid] | 0.1 to 1 | 3 to 30 |
| O=C(N[C@H]1CCCC[C@H]2CC[C@@H](C(=O)N3CC(Oc4cccnc4)C3)N2C1=O)c1cc2cc(C(F)(F)P(=O)(O)O)ccc2s1 [Compound 724, (difluoro(2-(((3S,6S,10aS)-5-oxo-3-(3-(pyridin-3-yloxy)azetidine-1-carbonyl)decahydropyrrolo[1,2-a]azocin-6-yl)carbamoyl)benzo [b]thiophen-5-yl)methyl) phosphonic acid] | < 0.1 | 0.3 to 3 |
| O=C(N[C@H]1CCCC[C@H]2CC[C@@H](C(=O)N[C@H](CO)Cc3cccnc3)N2C1=O)c1cc2cc(C(F)(F)P(=O)(O)O)ccc2s1 [Compound 725, (difluoro(2-(((3S,6S,10aS)-3-(((S)-1-hydroxy-3-(pyridin-3-yl)propan-2-yl)carbamoyl)-5-oxodecahydropyrrolo [1,2-a]azocin-6-yl)carbamoyl)benzo [b]thiophen-5-yl)methyl) phosphonic acid] | 0.1 to 1 | 3 to 30 |
| O=C(N[C@H]1CCCC[C@H]2CC[C@@H](C(=O)NCc3ccn[nH]3)N2C1=O)c1cc2cc(C(F)(F)P(=O)(O)O)ccc2s1 [Compound 726, ((2-(((3S,6S,10aS)-3-(((212-pyrazol-3-yl)methyl)carbamoyl)-5-oxodecahydropyrrolo [1,2-a]azocin-6-yl)carbamoyl)benzo [b]thiophen-5-yl)difluoromethyl) phosphonic acid] | 0.1 to 1 | 3 to 30 |
| O=C(N[C@H]1CCCC[C@H]2CC[C@@H](C(=O)N[C@@H](CO)Cc3cccnc3)N2C1=O)c1cc2cc(C(F)(F)P(=O)(O)O)ccc2s1 [Compound 727, (difluoro(2-(((3S,6S,10aS)-3-(((R)-1-hydroxy-3-(pyridin-3-yl)propan-2-yl)carbamoyl)-5-oxodecahydropyrrolo [1,2-a]azocin-6-yl)carbamoyl)benzo [b]thiophen-5-yl)methyl) phosphonic acid] | 1 to 10 | 3 to 30 |
| O=C(N[C@H]1CC[C@H]2CC[C@@H](C(=O)N3CC(c4ccccn4)C3)N2C1=O)c1cc2cc(C(F)(F)P(=O)(O)O)ccc2s1 [Compound 728, (difluoro(2-(((3S,6S,8aS)-5-oxo-3-(3-(pyridin-2-yl)azetidine-1-carbonyl)octahydroindolizin-6-yl)carbamoyl)benzo [b]thiophen-5-yl)methyl) phosphonic acid] | 0.1 to 1 | 3 to 30 |
